Test results published in patent publication US11981752B2, “Tumor associated monocyte/macrophage binding peptide and methods of use thereof” (Sanford Burnham Prebys Medical Discovery Institute, priority 2017, dated 2024).
“Also recorded” adds a separate entry of the source. Read-outs that look alike come from different tables or passages of the source. Bridge positions count the residues as written; N and C are the ends. Ends that are not written are not given here.

Legend:
PI3Kγ = PI3Kγ (Homo sapiens, UniProt P48736); details: cited from earlier work
Chain of PI3Kγ (P48736 whole entry, species assumed): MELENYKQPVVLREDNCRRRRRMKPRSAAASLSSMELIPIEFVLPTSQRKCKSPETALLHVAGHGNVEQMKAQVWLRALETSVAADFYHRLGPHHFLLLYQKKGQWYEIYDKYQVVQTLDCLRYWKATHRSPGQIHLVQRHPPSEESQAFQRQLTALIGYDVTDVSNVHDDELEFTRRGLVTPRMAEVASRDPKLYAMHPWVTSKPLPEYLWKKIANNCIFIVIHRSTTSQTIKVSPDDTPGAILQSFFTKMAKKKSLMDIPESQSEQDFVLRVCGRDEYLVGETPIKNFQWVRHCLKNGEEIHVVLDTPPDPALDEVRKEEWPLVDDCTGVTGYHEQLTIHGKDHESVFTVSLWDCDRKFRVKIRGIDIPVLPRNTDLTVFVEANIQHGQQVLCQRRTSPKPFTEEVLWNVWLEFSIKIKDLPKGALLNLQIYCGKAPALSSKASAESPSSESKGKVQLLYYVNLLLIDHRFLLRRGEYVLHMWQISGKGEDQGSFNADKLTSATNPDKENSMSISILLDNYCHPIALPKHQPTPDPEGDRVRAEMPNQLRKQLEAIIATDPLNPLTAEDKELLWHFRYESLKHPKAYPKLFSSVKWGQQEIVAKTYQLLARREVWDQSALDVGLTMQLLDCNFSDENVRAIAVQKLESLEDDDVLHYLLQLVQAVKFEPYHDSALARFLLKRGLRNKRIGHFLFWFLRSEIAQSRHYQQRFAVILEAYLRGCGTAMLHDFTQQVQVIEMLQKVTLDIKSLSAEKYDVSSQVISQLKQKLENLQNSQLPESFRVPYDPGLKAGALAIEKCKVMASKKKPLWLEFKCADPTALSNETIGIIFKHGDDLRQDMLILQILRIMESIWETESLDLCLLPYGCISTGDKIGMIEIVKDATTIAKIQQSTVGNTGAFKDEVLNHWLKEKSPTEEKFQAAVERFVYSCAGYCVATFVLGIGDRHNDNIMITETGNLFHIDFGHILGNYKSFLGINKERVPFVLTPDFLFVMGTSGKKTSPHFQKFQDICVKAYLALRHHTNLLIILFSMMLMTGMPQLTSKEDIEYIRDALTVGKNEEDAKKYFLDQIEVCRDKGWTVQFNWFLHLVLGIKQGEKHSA

[1] = test system: other kinases (named per endpoint); details: cited from earlier work
ATR = ATR (Homo sapiens, UniProt Q13535); details: cited from earlier work
PI3Kδ = PI3Kδ (Homo sapiens, UniProt O00329); details: cited from earlier work
Chain of PI3Kδ (O00329 whole entry, species assumed): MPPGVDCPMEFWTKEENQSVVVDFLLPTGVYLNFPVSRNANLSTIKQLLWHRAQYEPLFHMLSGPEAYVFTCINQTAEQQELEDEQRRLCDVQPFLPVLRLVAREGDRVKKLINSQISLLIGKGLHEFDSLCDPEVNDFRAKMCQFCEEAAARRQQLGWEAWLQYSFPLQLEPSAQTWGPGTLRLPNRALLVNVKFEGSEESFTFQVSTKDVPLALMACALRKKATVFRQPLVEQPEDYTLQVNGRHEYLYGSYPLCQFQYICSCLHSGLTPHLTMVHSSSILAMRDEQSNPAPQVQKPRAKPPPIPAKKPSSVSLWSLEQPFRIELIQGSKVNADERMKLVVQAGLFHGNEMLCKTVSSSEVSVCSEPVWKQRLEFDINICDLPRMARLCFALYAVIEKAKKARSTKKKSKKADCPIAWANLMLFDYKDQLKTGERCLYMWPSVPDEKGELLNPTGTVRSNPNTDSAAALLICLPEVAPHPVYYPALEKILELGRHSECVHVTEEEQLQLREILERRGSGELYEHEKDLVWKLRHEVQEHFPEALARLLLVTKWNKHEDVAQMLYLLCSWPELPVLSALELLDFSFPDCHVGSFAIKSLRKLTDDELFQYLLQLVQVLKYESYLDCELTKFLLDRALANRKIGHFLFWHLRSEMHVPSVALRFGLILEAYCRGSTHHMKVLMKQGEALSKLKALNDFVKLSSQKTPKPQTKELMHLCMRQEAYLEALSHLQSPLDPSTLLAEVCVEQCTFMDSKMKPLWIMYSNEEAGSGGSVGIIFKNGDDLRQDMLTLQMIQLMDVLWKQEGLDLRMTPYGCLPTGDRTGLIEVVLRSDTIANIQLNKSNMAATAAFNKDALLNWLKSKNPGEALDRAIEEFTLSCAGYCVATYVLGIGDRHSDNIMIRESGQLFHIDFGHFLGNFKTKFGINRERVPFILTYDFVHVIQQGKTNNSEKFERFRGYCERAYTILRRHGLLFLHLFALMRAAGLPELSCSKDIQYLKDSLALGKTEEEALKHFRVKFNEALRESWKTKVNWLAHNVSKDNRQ
Chain of PI3Kδ (P27986 whole entry partner, species assumed): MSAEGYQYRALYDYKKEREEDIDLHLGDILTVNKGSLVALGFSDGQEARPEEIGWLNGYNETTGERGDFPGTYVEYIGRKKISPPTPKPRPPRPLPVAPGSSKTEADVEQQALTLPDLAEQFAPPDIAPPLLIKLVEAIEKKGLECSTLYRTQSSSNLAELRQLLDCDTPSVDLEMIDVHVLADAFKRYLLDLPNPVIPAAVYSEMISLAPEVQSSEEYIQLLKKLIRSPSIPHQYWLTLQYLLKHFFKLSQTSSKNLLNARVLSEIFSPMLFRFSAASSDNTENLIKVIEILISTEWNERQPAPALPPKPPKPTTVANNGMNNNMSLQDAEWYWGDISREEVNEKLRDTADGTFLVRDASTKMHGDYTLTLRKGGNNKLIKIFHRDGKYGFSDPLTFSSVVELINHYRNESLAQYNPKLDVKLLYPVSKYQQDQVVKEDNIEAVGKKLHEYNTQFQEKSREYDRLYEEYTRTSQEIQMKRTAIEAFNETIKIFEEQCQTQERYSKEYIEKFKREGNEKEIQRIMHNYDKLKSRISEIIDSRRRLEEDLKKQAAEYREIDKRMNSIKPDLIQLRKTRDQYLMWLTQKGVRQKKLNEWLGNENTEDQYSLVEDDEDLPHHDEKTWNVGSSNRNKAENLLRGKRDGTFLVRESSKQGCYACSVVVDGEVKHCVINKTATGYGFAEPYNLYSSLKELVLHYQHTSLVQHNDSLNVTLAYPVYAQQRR

DNA-PK = DNA-PK (Homo sapiens, UniProt P78527); details: cited from earlier work
PI3Kβ = PI3Kβ (Homo sapiens, UniProt P42338); details: cited from earlier work
Chain of PI3Kβ (P42338 whole entry, species assumed): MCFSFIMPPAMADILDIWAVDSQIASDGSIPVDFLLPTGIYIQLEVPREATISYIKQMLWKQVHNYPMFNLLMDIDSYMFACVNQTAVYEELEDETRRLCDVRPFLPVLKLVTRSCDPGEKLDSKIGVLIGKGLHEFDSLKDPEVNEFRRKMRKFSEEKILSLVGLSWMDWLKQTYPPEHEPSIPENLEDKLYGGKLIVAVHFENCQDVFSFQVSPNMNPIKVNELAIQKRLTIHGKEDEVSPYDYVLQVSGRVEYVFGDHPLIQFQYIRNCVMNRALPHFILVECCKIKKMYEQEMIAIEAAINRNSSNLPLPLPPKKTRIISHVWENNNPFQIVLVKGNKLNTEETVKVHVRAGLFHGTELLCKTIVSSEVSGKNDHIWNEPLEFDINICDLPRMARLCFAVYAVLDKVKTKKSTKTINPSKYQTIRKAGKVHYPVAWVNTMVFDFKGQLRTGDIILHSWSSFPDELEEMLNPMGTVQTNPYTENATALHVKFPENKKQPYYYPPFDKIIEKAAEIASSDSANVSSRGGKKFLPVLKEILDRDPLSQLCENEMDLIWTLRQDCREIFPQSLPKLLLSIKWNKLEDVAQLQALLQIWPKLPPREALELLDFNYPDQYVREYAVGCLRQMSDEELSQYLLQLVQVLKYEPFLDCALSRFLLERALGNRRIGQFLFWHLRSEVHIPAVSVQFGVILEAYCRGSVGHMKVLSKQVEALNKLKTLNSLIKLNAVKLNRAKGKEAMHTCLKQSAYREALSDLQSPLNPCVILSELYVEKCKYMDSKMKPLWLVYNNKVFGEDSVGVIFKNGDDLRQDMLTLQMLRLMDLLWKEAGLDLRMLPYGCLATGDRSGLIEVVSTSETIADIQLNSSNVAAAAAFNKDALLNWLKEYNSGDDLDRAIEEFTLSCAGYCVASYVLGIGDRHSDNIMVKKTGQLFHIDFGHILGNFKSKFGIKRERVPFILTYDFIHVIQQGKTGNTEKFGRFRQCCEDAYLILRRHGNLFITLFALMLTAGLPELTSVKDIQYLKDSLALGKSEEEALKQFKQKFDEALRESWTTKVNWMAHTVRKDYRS
Chain of PI3Kβ (P27986 whole entry partner, species assumed): as the sequence (P27986 whole entry partner, species assumed) above

mTOR = mTOR (Homo sapiens, UniProt P42345); details: cited from earlier work
class I PI3K isoforms = details: cited from earlier work
atherosclerotic plaque = details: systemic treatment of mice; cited from earlier work
[2] = test system: macrophages in atherosclerosis plaques; details: ApoE null mice fed high fat diet (She et al. 2016); cited from earlier work
tumor = details: systemic treatment of mice; cited from earlier work
4T1 breast tumors = assay: In vivo peptide homing in mice bearing orthotopic 4T1 breast tumors; details: 1 hour
Experimental: (§1) To produce 4T1 tumors, 1×10^6 4 T1 cells (ATCC) suspended in 100 μl of PBS were injected into the mammary fat pad of wild type Balb/c female mice. C57BL/6 mice bearing atherosclerosis plaques were generated as previously described (She et al., Journal of Controlled Release 238:212-20 (2016)). Animal experimentation was performed according to the procedures approved by the Animal Research Committee at the Sanford-Burnham Medical Research Institute.
(§2) Orthotopic 4T1 tumors were used when they reached 0.5-1 cm in size. For tumor or plaque homing, 200 μg FAM-labeled peptide dissolved in 100 μl PBS was injected intravenously into mice. After 1 hour of circulation, the mice were euthanized by cardiac perfusion with PBS under anesthesia, and tumors and other organs (or plaques on the aorta) were dissected and analyzed for peptide homing.
In vivo tissue distribution of CRV peptide in tumor mice was investigated. FAM-CRV was injected intravenously into mice bearing 4T1 breast tumors. After 1 hour, perfusion through the heart was performed to eliminate any circulating peptide. Heart, lung, liver, kidney, spleen, and tumor were excised and the FAM-CRV signal was imaged with an illuminator.
CRV homing in tumor mice was investigated. Mice with orthotopic 4T1 breast tumors (n=2) were intravenously injected with 100 μg of CRV peptide labeled with a green fluorophor (FAM). The peptide was allowed to circulate for 1 hour, and the mice were perfused through the left ventricle of the heart to eliminate any peptide remaining in the blood. Major organs were excised and examined under visible and fluorescent light.

J774A.1 cells [3] = assay: In vitro peptide binding, flow cytometry, J774A.1; type: cell-based, mouse
Experimental: (§3) J774A.1 and RAW264.7 cells were obtained from ATCC. Cells were maintained in Dulbecco's Modified Eagle Medium supplemented with 10% fetal bovine serum, 1% Glutamine-Pen-Strep and […].
(§4) Cells were incubated on a rotator with peptides added at a final concentration of 10 μM in DMEM plus 1% BSA. For inhibition studies, biotin-CRV was added to a final concentration of 500 μM together with FAM-CRV (10 μM final). After 1 h at 4° C., cells were washed 3 times with PBS followed by flow cytometry analysis.
(§5) The peptide corresponding to the sequence of the top clone: […] (referred to as CRV herein; SEQ ID NO:1) was then synthesized. A green carboxy-fluorescein label (FAM) was added to the N-terminus of CRV to aid detection. CRV binding to two macrophage cell lines, J774A.1 and Raw264.7 was tested. Control peptides used were ARA ([…]; SEQ ID NO:8) and […] (SEQ ID NO:9).

[4] = test system: macrophages in atherosclerosis plaques; assay: In vivo homing to atherosclerosis plaques; set-up: species or system mice; details: 200 μg FAM-labeled peptide intravenously, 1 hour of circulation
Experimental: as §1, §2
Therefore, whether CRV also binds to macrophages in this model was investigated. 200 μg FAM-labeled peptide or control peptide ARA, each dissolved in 100 μl PBS, was injected intravenously into mice. After 1 hour of circulation, the mice were euthanized by cardiac perfusion with PBS under anesthesia, and tumors and other organs (or plaques on the aorta) were dissected and imaged with illuminator for FAM signal.

[5] = test system: macrophages in sites of infection; assay: Targeting of macrophages in sites of infection; type: in vivo; details: microbial, viral, or bacterial infection; no method given
Raw264.7 cells = assay: In vitro peptide binding, flow cytometry, Raw264.7; type: cell-based; details: FAM-labeled peptide 10 μM, 1 h at 4° C., controls ARA, GGSGGSKG
Experimental: as §3, §4, §5

[6] = test system: cells isolated from 4T1 tumors; assay: Ex vivo binding of FAM-CRV to cells isolated from 4T1 tumors; type: cell-based, mice; details: FAM-CRV 10 μM, 1-hour at 4° C., flow cytometry
Experimental: To determine the identity of the cells that FAM-CRV localized in within the tumors, ex vivo binding of FAM-CRV to cells isolated from tumors was studied. Tumors were excised from mice bearing 4T1 breast cancer and dissociated into single cell populations using MACS dissociation kit according to the manufacturer's instructions. FAM-CRV was added to a final concentration of 10 μM into a solution of DMEM+1% BSA containing 2 million tumor cells. After 1-hour incubation at 4° C., cells were stained with various immune cell markers. The markers tested include: CD11b (pan-monocyte/macrophage marker), Ly6-G (granulocytic monocyte), CCR2 (infiltrating monocytes), F4/80, CD4 (helper T cells), CD8 (cytotoxic T cells). Cells were stained for the indicated markers and subjected to flow cytometry analysis. The analysis was performed using antibodies to the indicated macrophage markers on CRV-positive cells.

J774A.1 cells [7] = assay: Phage display screening (CX7C T7 library) on J774A.1 cells; details: high throughput sequencing of phage clones bound to J774A.1 cells after three rounds of enrichment; terminal cysteines omitted

For O=C1NC(=O)C(=Cc2ccc(-c3ccc(F)cc3)o2)S1 (stereo in doubt) [CAY10505], the IC50 (PI3Kγ) is given as 33 nM.
In the case of Cn1c(=O)n(-c2ccc(C(C)(C)C#N)cc2)c2c3cc(-c4cnc5ccccc5c4)ccc3ncc21 [BEZ235, Dactolisib], the “inhibition of Akt and PDK1” value [1] is listed as “be a poor inhibitor to Akt and PDK1. Phase 2” and the IC50 (ATR) is listed as 21 nM.
In the case of COc1ccc(-c2cc3c(C)nc(N)nc3n([C@H]3CC[C@H](OCCO)CC3)c2=O)cn1 [PF-04691502], the “activity against Vps34, AKT, PDK1, p7056K, MEK, ERK, p38, or JNK” value [1] is listed as “nM, little activity against either Vps34, AKT,”.
In the case of Fc1ccc2[nH]ccc2c1-c1nc(N2CCOCC2)c2sc(CN3CCN(CC4CC4)CC3)cc2n1 [PI-3065], the selectivity ratio (PI3Kδ) is given as greater than 70.
For Cc1ccc([N+](=O)[O-])cc1S(=O)(=O)N(C)/N=C/c1cnc2ccc(Br)cn12 [PIK-75], the IC50 (PI3Kγ) is listed as 76 nM and the IC50 (DNA-PK) is listed as 2 nM.
For Cc1ccccc1-n1c(Cn2ncc3c(N)ncnc32)nc2cccc(C)c2c1=O [PIK-293], the IC50 (PI3Kγ) is given as 10000 nM and the IC50 (PI3Kδ) is given as 240 nM.
For CCn1nnc2c(N3CCOCC3)nc(-c3ccc(NC(=O)Nc4ccc(C(=O)N5CCN(C)CC5)cc4)cc3)nc21 [PKI-402], the IC50 (PI3Kβ) is given as 7 nM and the IC50 (mTOR) is given as 3 nM.
For O=c1c(O)c(-c2ccc(O)c(O)c2)oc2cc(O)cc(O)c12 [Quercetin], the IC50 (class I PI3K isoforms; isoform not stated, read-out: PI3K IC50) is listed as 2400 to 5400 nM.
For CCn1c(=O)c(-c2cc[nH]n2)cc2c(C)nc(N)nc21 [SAR245409], the “inhibition of DNA-PK and mTOR” value [1] is listed as “also inhibits DNA-PK and mTOR. Phase 1/2”.
For FC(F)c1nc2ccccc2n1-c1nc(N2CCOCC2)nc(N2CCOCC2)n1 [ZSTK474], the IC50 (class I PI3K isoforms; read-out: IC50 for PI3K isoforms stated together (PI3Kα/β/δ/γ; class I PI3K isoforms)) is listed as 37 nM.
For “CGNKRTRGC (also: cyclic, kind and places not given here) [LyP-1, receptor is cell surface protein p32]”, the atherosclerotic plaque (atherosclerotic plaque) is listed as “reduces atherosclerotic plaque”, the “homing to / recognition of macrophages in atherosclerosis plaques” value [2] is listed as “homes to macrophages residing in atherosclerosis plaques; also recorded: recognizes macrophages both in tumors and atherosclerotic plaques” and the tumor growth (tumor) is listed as “slows down tumor growth”.
With “CRVLRSGSC (disulfide 1-9 (inferred); also: FAM or biotin label) [TAM-homing peptide; tested with N-terminal FAM label (FAM-CRV) or biotin label (biotin-CRV)]” the “localization in tumor sections (fluorescence microscopy)” value (4T1 breast tumors; 100 μg FAM-labeled peptide intravenously) was “lack of co-localization of CRV with the blood vessel marker CD31; also recorded: entered into the extravascular compartment of the tumor; also recorded: Partial co-localization of CRV with the macrophage marker F4/80; also recorded: localizes in a CD45 leukocyte-rich tumor area; also recorded: co-localizes with macrophages having the macrophage markers F4/80 and with lymphatic vessels in tumors”, the “organ fluorescence after injection of FAM-labeled peptide” value (4T1 breast tumors; 100 μg intravenously, perfusion, n=2) was “tumors were positive for peptide fluorescence; also recorded: Some fluorescence was seen in one lung; also recorded: kidneys were positive; also recorded: preferentially homes to tumors” and the “in vivo tissue distribution (FAM signal of excised organs)” value (4T1 breast tumors; FAM-CRV intravenously, perfusion, heart, lung, liver, kidney, spleen, tumor) was “mainly found in the tumors and the kidneys, with trace amounts or none in the liver, spleen, lungs and heart”. For the same compound, the “binding to J774A.1 cells versus control peptides” value (J774A.1 cells [3]; FAM-labeled peptide 10 μM, 1 h at 4° C., flow cytometry, controls ARA, GGSGGSKG) was “higher binding”, the “effect of excess biotin-labeled CRV on binding of FAM-CRV to J774A.1 cells” value (J774A.1 cells [3]; biotin-CRV 500 μM (50-fold excess), FAM-CRV 10 μM) was “inhibited the binding” and the “homing to atherosclerosis plaques” value [4] was “does not home to plaques; also recorded: recognizes macrophages in tumors but not in atherosclerotic plaques”. The “ability of the host to clear the infection” value [5] was “markedly increased ability of the host to clear the infection”, the “binding to Raw264.7 cells versus control peptides” value (Raw264.7 cells) was “higher binding” and the “binding to different subtypes of CD11b+ cells (CD11b+Ly-6G+ vs. CD11b+Ly-6G-)” value [6] was “binds equally well”. For the same compound, the “share of CRV-positive cells that are CD11b+ cells” value [6] was roughly 80%.
In the case of GGASIT, the Count (J774A.1 cells [7]) is reported as 8677.
For GGRVLRS, the Count (J774A.1 cells [7]) was 62028.
With GRLLRSG the Count (J774A.1 cells [7]) was 9124.
With GRMLRSG the Count (J774A.1 cells [7]) was 8922.
For GRVLRSS, the Count (J774A.1 cells [7]) was 6774.
For RSGLRSS, the Count (J774A.1 cells [7]) was 9519.
Work on RVLRSGS yielded a Count (J774A.1 cells [7]) of 63428.
Compound SVAYD has a Count (J774A.1 cells [7]) of 10187.
For SVGRSMRS, the Count (J774A.1 cells [7]) was 7916.
